This note sets out measurements from patent US6670168B1, “Recombinant Streptomyces hygroscopicus host cells that produce 17-desmethylrapamycin” (Kosan Bioscience, Inc., priority 1999, dated 2003).

A short description of the experiment: immunosuppressive activity compared with rapamycin (no test described). The note with it: relative to rapamycin; qualitative statement, no method or data given.

As for `COC1CC(CC(C)C2CC(=O)C(C)C=C(C)C(O)CC(=O)C(C)CC(C)C=CC=CC=C(C)C(O)CC3CCC(C)C(O)(O3)C(=O)C(=O)N3CCCCC3C(=O)O2)CCC1O` (stereo not shown) [16-desmethyl-27-desmethoxyrapamycin], the immunosuppressive activity entry was “lower immunosuppressive activity than rapamycin”.
